The values below come from ChEMBL document CHEMBL4196124, “Reverse Hydroxamate Inhibitors of Bone Morphogenetic Protein 1” (ACS Med Chem Lett, 2018).

The species named for experiment [1] is Homo sapiens. As to the kind of experiment: Selectivity ratio of IC50 for ACE2 (unknown origin) to IC50 for recombinant human N-terminal 6His/flag-tagged BMP1 (121 to 721 residues) expressed in CHO cells. It is filed as cell-based.
For experiment [2], the species on record is Homo sapiens. As to the kind of experiment: Selectivity ratio of IC50 for recombinant human C-terminal MMP12 (84 to 255 residues) catalytic domain expressed in Escherichia coli to IC50 for recombinant human N-terminal 6His/flag-tagged BMP1 (121 to 721 residues) expressed in CHO cells.
The target of another experiment is T1, Tolloid-like protein 1 (Homo sapiens, UniProt O43897).
T1 sequence (O43897 whole entry): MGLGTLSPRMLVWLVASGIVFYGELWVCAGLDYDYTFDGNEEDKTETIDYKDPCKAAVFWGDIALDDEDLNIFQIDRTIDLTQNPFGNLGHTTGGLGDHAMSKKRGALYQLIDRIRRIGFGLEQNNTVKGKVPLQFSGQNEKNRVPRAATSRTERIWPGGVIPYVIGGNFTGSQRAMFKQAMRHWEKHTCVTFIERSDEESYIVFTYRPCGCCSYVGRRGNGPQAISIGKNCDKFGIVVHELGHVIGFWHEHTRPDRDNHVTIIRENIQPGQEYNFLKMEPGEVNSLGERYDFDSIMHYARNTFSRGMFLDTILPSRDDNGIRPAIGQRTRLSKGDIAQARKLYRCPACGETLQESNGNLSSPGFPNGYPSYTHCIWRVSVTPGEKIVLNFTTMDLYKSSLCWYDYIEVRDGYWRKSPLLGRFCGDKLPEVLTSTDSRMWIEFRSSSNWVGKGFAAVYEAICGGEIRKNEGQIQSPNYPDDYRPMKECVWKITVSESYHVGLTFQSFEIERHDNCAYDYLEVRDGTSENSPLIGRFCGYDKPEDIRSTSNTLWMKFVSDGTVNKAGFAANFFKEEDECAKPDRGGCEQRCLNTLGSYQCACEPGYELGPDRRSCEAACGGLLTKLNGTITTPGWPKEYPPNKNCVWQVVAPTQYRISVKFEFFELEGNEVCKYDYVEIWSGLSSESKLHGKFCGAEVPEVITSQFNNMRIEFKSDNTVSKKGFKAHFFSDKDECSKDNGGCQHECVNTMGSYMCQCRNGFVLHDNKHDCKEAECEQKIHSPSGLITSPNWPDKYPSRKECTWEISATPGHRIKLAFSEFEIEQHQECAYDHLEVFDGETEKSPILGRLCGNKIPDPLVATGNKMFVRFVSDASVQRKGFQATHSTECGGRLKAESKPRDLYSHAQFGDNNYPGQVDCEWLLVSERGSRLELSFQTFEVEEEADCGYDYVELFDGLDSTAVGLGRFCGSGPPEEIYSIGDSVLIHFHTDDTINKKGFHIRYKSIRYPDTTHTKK
Put plainly: Inhibition of recombinant human full length TLL1 using ((5-FAM)-ELIDQYDVQRDDSSDGSLED-K(5,6 TAMRA)-CONH2) as substrate preincubated for 10 mins followed by substrate addition measured after 60 mins.

The species named for experiment [3] is Homo sapiens. Put plainly: Selectivity ratio of IC50 for recombinant human C-terminal MMP2 (81 to 423 residues) catalytic domain expressed in Escherichia coli to IC50 for recombinant human N-terminal 6His/flag-tagged BMP1 (121 to 721 residues) expressed in CHO cells.
In experiment [4] the target is T2, Bone morphogenetic protein 1 (Homo sapiens, UniProt P13497).
T2 sequence (P13497 whole entry): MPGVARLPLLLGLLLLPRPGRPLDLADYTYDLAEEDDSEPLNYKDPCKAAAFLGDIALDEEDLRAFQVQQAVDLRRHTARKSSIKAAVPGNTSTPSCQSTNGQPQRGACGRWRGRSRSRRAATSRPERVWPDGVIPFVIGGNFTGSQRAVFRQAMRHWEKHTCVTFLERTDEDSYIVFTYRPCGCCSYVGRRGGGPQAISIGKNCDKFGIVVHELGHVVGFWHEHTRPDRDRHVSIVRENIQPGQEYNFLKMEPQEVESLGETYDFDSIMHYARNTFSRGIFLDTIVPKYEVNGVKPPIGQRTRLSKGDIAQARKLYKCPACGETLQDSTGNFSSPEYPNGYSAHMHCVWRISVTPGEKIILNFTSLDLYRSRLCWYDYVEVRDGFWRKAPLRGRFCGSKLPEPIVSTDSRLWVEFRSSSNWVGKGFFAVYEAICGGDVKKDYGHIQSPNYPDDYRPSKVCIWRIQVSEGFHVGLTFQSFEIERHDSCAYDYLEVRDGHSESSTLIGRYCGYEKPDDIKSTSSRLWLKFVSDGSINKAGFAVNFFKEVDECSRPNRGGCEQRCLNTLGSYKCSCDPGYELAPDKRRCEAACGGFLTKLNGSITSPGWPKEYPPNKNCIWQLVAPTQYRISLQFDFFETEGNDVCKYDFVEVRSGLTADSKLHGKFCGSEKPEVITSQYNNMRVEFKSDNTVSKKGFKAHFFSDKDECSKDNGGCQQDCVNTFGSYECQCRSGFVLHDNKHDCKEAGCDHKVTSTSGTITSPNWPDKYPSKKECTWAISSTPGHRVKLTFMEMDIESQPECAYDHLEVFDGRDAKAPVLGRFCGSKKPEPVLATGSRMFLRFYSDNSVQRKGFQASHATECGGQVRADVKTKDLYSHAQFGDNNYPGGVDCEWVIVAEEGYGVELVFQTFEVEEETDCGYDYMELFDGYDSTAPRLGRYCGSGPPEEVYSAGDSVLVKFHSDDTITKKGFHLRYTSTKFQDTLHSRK
As to the kind of experiment: Inhibition of recombinant human N-terminal 6His/flag-tagged BMP1 (121 to 721 residues) expressed in CHO cells using ((5-FAM)-ELIDQYDVQRDDSSDGSLED-K(5,6 TAMRA)-CONH2) as substrate preincubated for 10 mins followed by substrate addition measured after 60 mins.

Consider `CCCCC[C@@H](C(=O)NCNC(=O)c1ccc(-c2ccccc2)o1)[C@@H](CC)N(O)C=O`, for which the Ratio IC50 in the experiment filed under Homo sapiens [1], in the experiment filed under Homo sapiens [2] and in the experiment filed under Homo sapiens [3] was over 30 in each case. In addition, the concentration for half-maximal inhibition (IC50) was 100 nM at Tolloid-like protein 1 and 32 nM in experiment [4].
